# “And” between values parts separate entries of the source, which are not always exact repeats. Identical values can stand only once. Like-named read-outs stand apart in the source and are kept apart here.
# Legend:
# [1] = test system: HIV-1 (strain LAV); assay type: cell-based
# From the text: It is often desirable to screen a number of racemic mixtures of nucleosides as a preliminary step to determine which warrant further resolution into enantiomerically enriched components and further evaluation of antiviral activity. The ability of nucleosides to inhibit HIV can be measured by various experimental techniques. The technique used herein, and described in detail below, measures the inhibition of viral replication in phytohemagglutinin (PHA) stimulated human peripheral blood mononuclear (PBM) cells infected with HIV-1 (strain LAV). The amount of virus produced is determined by measuring the virus-coded reverse transcriptase enzyme. The amount of enzyme produced is proportional to the amount of virus produced.
# A. Three-day-old phytohemagglutinin-stimulated PBM cells (10^6 cells/ml) from hepatitis B and HIV-1 seronegative healthy donors were infected with HIV-1 (strain LAV) at a concentration of about 100 times the 50% tissue culture infectious dose (TICD 50) per ml and cultured in the presence and absence of various concentrations of antiviral compounds.
# B. Approximately one hour after infection, the medium, with the compound to be tested (2 times the final concentration in medium) or without compound, was added to the flasks (5 ml; final volume 10 ml). AZT was used as a positive control.
# C. The cells were exposed to the virus (about 2×10^5 dpm/ml, as determined by reverse transcriptase assay) and then placed in a CO2 incubator. HIV-1 (strain LAV) was obtained from the Center for Disease Control, Atlanta, Ga. The methods used for culturing the PBM cells, harvesting the virus and determining the reverse transcriptase activity were those described by McDougal et al. (J. Immun. Meth. 76, 171-183, 1985) and Spira et al. (J. Clin. Meth. 25, 97-99, 1987), except that fungizone was not included in the medium (see Schinazi, et al., Antimicrob. Agents Chemother. 32, 1784-1787 (1988); Id., 34:1061-1067 (1990)).
# D. On day 6, the cells and supernatant were transferred to a 15 ml tube and centrifuged at about 900 g for 10 minutes. Five ml of supernatant were removed and the virus was concentrated by centrifugation at 40,000 rpm for 30 minutes (Beckman 70.1 Ti rotor). The solubilized virus pellet was processed for determination of the levels of reverse transcriptase. Results are expressed in dpm/ml of sampled supernatant. Virus from smaller volumes of supernatant (1 ml) can also be concentrated by centrifugation prior to solubilization and determination of reverse transcriptase levels.
# [2] = test system: HIV; conditions: compared with AZT; cited from earlier work
# [3] = test system: AZT-resistant HIV isolates; conditions: in vitro, isolates from patients treated with AZT for longer than 36 weeks; cited from earlier work
# [4] = test system: human PBM cells; test: Egress of radiolabeled FTC from human PBM cells; assay type: in vitro ADME; conditions: human PBM cells after 24 h pulse with 10 μM
# Procedure: This study measures the time needed for intracellular levels of triphosphates to decline. Studies were conducted in duplicate. Uninfected cells (2×10^6 ml) were suspended in the appropriate medium supplemented with serum (10 ml per timepoint) and incubated at 37° C. in a 5% CO2 incubator. The radiolabeled FTC concentration was 10 μM. After pulsing the cells with the labeled compound for 24 hours, the cells were thoroughly washed and then replenished with fresh medium without the antiviral drugs (0 hr). At 0, 2, 4, 6, 12, 24, and 48 hours (second incubation time), the cells were removed, and immediately extracted with 60% cold methanol/water. The extract was obtained by centrifugation and removal of the cell pellet. The extracts were lyophilized and then stored at −70° C. Prior to analysis, the material was resuspended in 250 microliters of HPLC buffer and immediately analyzed. Quantitation of intracellular parent drug and metabolic derivatives was conducted by HPLC, using either a Micromeritics or Hewlett-Packard model 1090 PHLC system with an anion exchange Partisil 10 SAX column (Whatman, Inc.), at a flow rate of 1 ml/min, 1 kpsi pressure, with UV detection at 262 nm. The mobile phase consisted of deionized water (A), 2 mM NaH2PO4/16 mM NaOAc (pH=6.6) (B), 15 mM NaH2PO4/120.2 mM NaOAc (pH=6.6) (C), and 100 mM NaH2PO4/800 mM NaOAc (pH=6.6) (D). […]
# [5] = target: T1, HIV-1 reverse transcriptase (RT) (Human immunodeficiency virus type 1 group M subtype B, UniProt P04585); test: Inhibition of HIV-1 reverse transcriptase by FTC triphosphate; assay type: biochemical; conditions: sequencing analysis, HIV-RT (C-stops)
# T1 construct: HIV-1 reverse transcriptase (RT)
# Procedure: Toxicity and pharmacokinetic studies confirm the usefulness of FTC as an antiviral agent for pharmaceutical administration. FTC and its enantiomers are nontoxic to peripheral human bone marrow cells at concentrations up to 50 µM and other cell lines at concentrations up to 200 μM. FTC-TP is a major intracellular metabolite in PBMC and HepG2 cells.
# [6] = test system: HIV-2; test: Antiretroviral activity in different cell systems, HIV-2; assay type: cell-based; conditions: PBMC (ROD2)
# Procedure: Cell lines were obtained from either human donors, AIDS Research and Reference Reagent Program, NIH, Rockville, Md., ATCC, or the Red Cross. The CEM thymidine kinase deficient cells were prepared by sequential passage of CEM cells in the presence of 5-bromo-2′-deoxyuridine.
# [7] = test system: uninfected human PBM cells
# From the text: The cells were counted after 6 days using a hemacytometer and the trypan blue exclusion method, as described by Schinazi et al., Antimicrobial Agents and Chemotherapy, 22(3), 499 (1982).
# [8] = test system: HIV; test: microbe, parasite or virus in culture; assay type: cell-based; conditions: Human immunodeficiency virus 1; MT4 system
# [9] = CSF/serum ratio in rhesus monkeys; assay type: in vivo; conditions: 1 hour after treatment
# [10] = PBM cells, procedure similar to Example 6, read-out: EC50
# [11] = enantiomers resolved by HPLC (Example 4), Table 4, read-out: EC50
# [12] = human PBM cells, HIV-1 strain LAV, Table 3, read-out: Antiviral EC50
structure (smiles),measurement,setting,value
CCCC(=O)OC[C@@H]1O[C@H](n2cc(F)c(N)nc2=O)CS1 (racemic) [5′-O-butyrate ester of (±)-FTC],EC50,[1]; [10],0.0017 µM
"Nc1ccn(C2CSC(CO)O2)c(=O)n1 (racemic) [(±)-BCH-189, 2-hydroxymethyl-5-(cytosin-1-yl)-1,3-oxathiolane]",activity against HIV,[2],approximately the same activity against HIV as AZT
same,inhibition of replication of AZT-resistant HIV isolates,[3],inhibit the replication of AZT-resistant HIV isolates
Nc1nc(=O)n([C@@H]2CS[C@H](COP(=O)(O)OP(=O)(O)OP(=O)(O)O)O2)cc1F (racemic) [FTC-TP],intracellular half-life,[4],approximately 12 hours
same,DNA chain termination,[5],potent DNA chain terminator
CC(=O)Nc1nc(=O)n(C2CSC(CO)O2)cc1F (racemic) [N′-acetyl derivative of (±)-FTC],EC50,[1]; [10],0.0028 µM
"Nc1nc(=O)n(C2CSC(CO)O2)cc1F (single isomer, unassigned; (-)) [(−)-FTC, (−)-β-L-2-hydroxymethyl-5-(5-fluorocytosin-1-yl)-1,3-oxathiolane]",DPM/ml,[1]; 0.001 μM,"76,275 DPM/ml"
same,DPM/ml,[1]; 0.005 μM,"58,590 DPM/ml"
same,DPM/ml,[1]; 0.01 μM,"75,350 DPM/ml"
same,DPM/ml,[1]; 0.05 μM,"28,890 DPM/ml"
same,DPM/ml,[1]; 0.1 μM,"13,175 DPM/ml"
same,DPM/ml,[1]; 0.5 μM,"9,485 DPM/ml"
same,EC50,[1]; [11],0.02 µM
same,EC50,[1]; [12],0.008 µM
same,EC50,[6],0.0007 µM
same,IC50,[7],> 100 µM
"Nc1nc(=O)n([C@H]2CS[C@@H](CO)O2)cc1F [(+)-FTC, (+)-β-D-2-hydroxymethyl-5-(5-fluorocytosin-1-yl)-1,3-oxathiolane]",% Inhibition (Corrected),[1]; 0.001 μM,3.8%
same,DPM/ml,[1]; 0.001 μM,"94,340 DPM/ml"
same,% Inhibition (Corrected),[1]; 0.005 μM,−10.6%
same,DPM/ml,[1]; 0.005 μM,"107,430 DPM/ml"
same,% Inhibition (Corrected),[1]; 0.01 μM,−1.8%
same,DPM/ml,[1]; 0.01 μM,"99,465 DPM/ml"
same,% Inhibition (Corrected),[1]; 0.05 μM,11.8%
same,DPM/ml,[1]; 0.05 μM,"87,120 DPM/ml"
same,% Inhibition (Corrected),[1]; 0.1 μM,12.7%
same,DPM/ml,[1]; 0.1 μM,"86,340 DPM/ml"
same,% Inhibition (Corrected),[1]; 0.5 μM,71.4%
same,DPM/ml,[1]; 0.5 μM,"33,225 DPM/ml"
same,EC50,[1]; [11],0.28 µM
same,EC50,"[1]; enantiomers resolved by method of Example 3, FIG. 6, read-out: EC50",0.84 µM
same,EC50,[6],0.026 µM
same,IC50,[7],> 100 µM
"Cc1cn([C@H]2C[C@H](N=[N+]=[N-])[C@@H](CO)O2)c(=O)[nH]c1=O [AZT, 3′-azido-3′-deoxythymidine, reference compound]",IC50,[8],0.09 µM
O=c1ccn(C2CSC(CO)O2)c(=O)[nH]1 (stereo not shown) [DLS-009],EC50,[1]; [12],> 100 µM
same,IC50,[7],> 100 µM
Cc1cn(C2CSC(CO)O2)c(=O)[nH]c1=O (stereo not shown) [DLS-010],EC50,[1]; [12],64.4 µM
Cc1cn([C@H]2CS[C@@H](CO)O2)c(=O)nc1N [DLS-011],EC50,[1]; [12],> 10 µM
Nc1nc(=O)n([C@H]2CS[C@@H](CO)O2)cc1Br [DLS-021],EC50,[1]; [12],77.4 µM
Nc1nc(=O)n([C@H]2CS[C@@H](CO)O2)cc1Cl [DLS-023],EC50,[1]; [12],38.7 µM
Nc1nc(=O)n([C@H]2CS[C@@H](CO)O2)cc1I [DLS-026],EC50,[1]; [12],0.72 µM
O=c1[nH]c(=O)n([C@H]2CS[C@@H](CO)O2)cc1F [DLS-027],EC50,[1]; [12],> 100 µM
same,IC50,[7],> 100 µM
O=c1[nH]c(=O)n([C@H]2CS[C@@H](CO)O2)cc1Cl [DLS-028],EC50,[1]; [12],60.8 µM
O=c1[nH]c(=O)n([C@H]2CS[C@@H](CO)O2)cc1I [DLS-029],EC50,[1]; [12],> 100 µM
same,IC50,[7],> 100 µM
O=c1[nH]c(=O)n([C@H]2CS[C@@H](CO)O2)cc1Br [DLS-044],EC50,[1]; [12],> 100 µM
same,IC50,[7],> 100 µM
Nc1nc(=O)n([C@@H]2CS[C@H](CO)O2)cc1C(F)(F)F [DLS-053],EC50,[1]; [12],60.7 µM
O=c1[nH]c(=O)n(C2CSC(CO)O2)cc1F (stereo not shown) [FTU],CSF/Serum Ratio of deaminated metabolite (FTU),"[9]; I.V. FTC 33.3 mg/kg, individual monkeys",0.024 and 0.032 and 0.052
same,CSF/Serum Ratio of deaminated metabolite (FTU),"[9]; I.V. FTC 33.3 mg/kg, mean",0.036
same,CSF/Serum Ratio of deaminated metabolite (FTU),"[9]; P.O. FTC 33.3 mg/kg, individual monkeys",0.026 and 0.037 and 0.055
same,CSF/Serum Ratio of deaminated metabolite (FTU),"[9]; P.O. FTC 33.3 mg/kg, mean",0.039

# From patent US20090048190A1, “Antiviral activity and resolution of 2-hydroxymethyl-5(5-fluorocytosin-1-yl)-1,3-oxathiolane” (priority 1990, published 2009)
